Test results from patent publication US12129221B2, “Difluoro phenyl amide RIP1 inhibitor” (SIRONAX LTD, priority 2018, dated 2024).
pEC50, pIC50: −log10 of the molar value. Like-named read-outs stand apart in the source and are kept apart here. Each block holds one compound with its values, some of them ahead of it.

Legend:
necrosis = assay: Necrosis inhibitory activity (cell necrosis / cell viability assay); type: cell-based
Text: Necrosis Inhibitory Activity
(§1) Representative IC50 of hRIP1 Kinase Assay Correlated with Our IC50 of Cell Necrosis Assay: […]

ferroptosis = assay: Ferroptosis inhibitor activity; type: cell-based; conditions: 1 uM threshold activity extrapolated
Text: Ferroptosis Inhibitor Activity 1 Um Threshold Activity Extrapolated

[1] = Liver microsome stability, human; type: in vitro ADME; conditions: liver microsomes
Text: (§2) Representative Metabolic Stability Data I; +, Extrapolated.

[2] = Liver microsome stability, rat; type: in vitro ADME; conditions: liver microsomes
Text: as §2

[3] = Liver microsome stability, mouse; type: in vitro ADME; conditions: liver microsomes
Text: as §2

[4] = Liver microsome stability, dog; type: in vitro ADME; design: key to Dog T1/2 (min): +, Extrapolated; conditions: liver microsome stability; for half-life: dog, liver microsomes, read-out: Dog T1/2
Text: as §2

[5] = Liver microsome stability, mini-pig; type: in vitro ADME; design: key to mini-pig T1/2 (min): +, Extrapolated; conditions: extrapolated
Text: as §2

[6] = Liver microsome stability, monkey; type: in vitro ADME; design: key to Monkey T1/2 (min): +, Extrapolated; conditions: liver microsome stability; for half-life: monkey, liver microsomes, read-out: Monkey T1/2
Text: as §2

[7] = Hepatocyte stability, human; type: in vitro ADME; design: key to Human T1/2 (min): +, Extrapolated; conditions: Hepatocyte stability; for Human T1/2 (min): extrapolated
Text: (§3) Representative Metabolic Stability Data II, +, Extrapolated.

[8] = Hepatocyte stability, rat; type: in vitro ADME; design: key to Rat T1/2 (min): +, Extrapolated; conditions: Hepatocyte stability; for Rat T1/2 (min): extrapolated
Text: as §3

[9] = Hepatocyte stability, mouse; type: in vitro ADME; design: key to Mouse T1/2 (min): +, Extrapolated; conditions: Hepatocyte stability; for Mouse T1/2 (min): extrapolated
Text: as §3

[10] = Hepatocyte stability, dog; type: in vitro ADME; design: key to Dog T1/2 (min): +, Extrapolated; conditions: Hepatocyte stability; for Dog T1/2 (min): extrapolated
Text: as §3

[11] = Hepatocyte stability, mini-pig; type: in vitro ADME; design: key to mini-pig T1/2 (min): +, Extrapolated; conditions: extrapolated
Text: as §3

[12] = Hepatocyte stability, monkey; type: in vitro ADME; design: key to Monkey T1/2 (min): +, Extrapolated; conditions: Hepatocyte stability; for Monkey T1/2 (min): extrapolated
Text: as §3

PK in rat = assay: PK in rat; design: species or system SD rat; conditions: Sprague-Dawley, in vivo; for bioavailability / half-life: rat, po
Text: Representative PK Date of Pro-Drug Compounds

Human RIP1 kinase = Human RIP1 kinase (Homo sapiens (Human), UniProt Q13546); assay: Human RIP1 kinase assay; type: biochemical; conditions: given as bound or range
Human RIP1 kinase, sequence (Q13546 whole entry): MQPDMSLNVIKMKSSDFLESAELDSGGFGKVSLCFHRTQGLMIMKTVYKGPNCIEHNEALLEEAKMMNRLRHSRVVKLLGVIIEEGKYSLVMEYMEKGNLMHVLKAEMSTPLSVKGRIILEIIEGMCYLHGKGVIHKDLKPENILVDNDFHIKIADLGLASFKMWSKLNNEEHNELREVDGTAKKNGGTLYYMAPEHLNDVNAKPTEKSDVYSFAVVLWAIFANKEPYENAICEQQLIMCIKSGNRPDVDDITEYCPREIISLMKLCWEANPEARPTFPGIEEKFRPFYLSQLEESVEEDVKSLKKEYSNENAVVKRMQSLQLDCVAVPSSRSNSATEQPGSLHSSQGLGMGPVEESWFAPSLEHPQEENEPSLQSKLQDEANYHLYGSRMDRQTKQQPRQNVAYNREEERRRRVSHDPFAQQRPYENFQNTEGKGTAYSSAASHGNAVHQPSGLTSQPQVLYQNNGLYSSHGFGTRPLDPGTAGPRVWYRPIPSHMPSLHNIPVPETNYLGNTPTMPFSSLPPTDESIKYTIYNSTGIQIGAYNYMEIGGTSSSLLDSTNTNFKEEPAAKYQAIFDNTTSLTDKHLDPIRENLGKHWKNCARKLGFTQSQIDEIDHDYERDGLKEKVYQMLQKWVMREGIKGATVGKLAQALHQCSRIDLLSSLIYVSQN
Text: as §1

[13] = Prodrug enhanced metabolic stability: liver microsome (L); type: in vitro ADME; design: key: +, Extrapolated
Text: (§4) Prodrug Enhanced Metabolic Stability: Liver Microsome (L), Hepatocyte (H) and PK

[14] = Prodrug enhanced metabolic stability: hepatocyte (H); type: in vitro ADME; design: key: +, Extrapolated
Text: as §4

[15] = Prodrug enhanced metabolic stability: PK; type: in vivo; design: key: +, Extrapolated
Text: as §4

HT-29 = assay: EC50 in HT-29; type: cell-based; conditions: Homo sapiens
PK in mouse = conditions: in vivo
PK in dog = conditions: in vivo
[16] = Necrosis Inhibitory Activity, given as range, read-out: EC50
[17] = liver microsome stability, read-out: Human T1/2
[18] = liver microsome stability, read-out: Rat T1/2
[19] = liver microsome stability, read-out: Mouse T1/2
[20] = cell necrosis assay, given as bound or range, read-out: Cell viability assay, EC50
[21] = 60 mg/kg, SD rat, dose 60 mg/Kg micropower
[22] = comparison table with WO2016/101885 compounds, read-out: Human Liver Microsome T1/2
[23] = comparison table with WO2016/101885 compounds, read-out: Rat Liver Microsome T1/2
[24] = comparison table with WO2016/101885 compounds, read-out: Mouse Liver Microsome T1/2

pEC50 (ferroptosis): 5.00 to 6.00
half-life [1, 17]: 96.8 min
half-life [2, 18]: 41.1 min
half-life [3, 19]: 16.6 min
Dog T1/2 (min) ([4]; extrapolated): +
mini-pig T1/2 (min) [5]: +
Monkey T1/2 (min) ([6]; extrapolated): +
Human T1/2 (min) [7]: +
Rat T1/2 (min) [8]: +
Mouse T1/2 (min) [9]: +
Dog T1/2 (min) [10]: +
mini-pig T1/2 (min) [11]: +
Monkey T1/2 (min) [12]: +
AUC (PK in rat; SD rat, PO 10 mg/kg): 923 ng·h/mL
bioavailability (PK in rat; 10 mg/kg, SD rat, PO 10 mg/kg): 20.3%
half-life (PK in rat; 10 mg/kg, SD rat, PO 10 mg/kg): 293 min
Compound: CCC(C)(C)C(=O)N(O)Cc1ccc(Cl)cc1 [Compound 15, N-(4-chlorobenzyl)-N-hydroxy-2,2-dimethylbutanamide]
pEC50 (necrosis; [16]): 6.00 to 9.00

pEC50 (ferroptosis): 5.00 to 6.00
pIC50 (Human RIP1 kinase): > 7.00
Compound: CCC(C)(C)C(=O)N(O)Cc1ccc(Cl)c(F)c1 [Compound 16, N-(4-chloro-3-fluorobenzyl)-N-hydroxy-2,2-dimethylbutanamide]
pEC50 (necrosis; [16]): 6.00 to 9.00
pEC50 (necrosis; [20]): 6.00 to 9.00

pEC50 (ferroptosis): 5.00 to 6.00
half-life [1, 17]: 154 min
half-life [2, 18]: 28.9 min
half-life [3, 19]: 25.4 min
half-life [4]: 6 min
mini-pig T1/2 (min) [5]: +
half-life [6]: 0.3 min
Human T1/2 (min) [7]: +
Rat T1/2 (min) [8]: +
Mouse T1/2 (min) [9]: +
Dog T1/2 (min) [10]: +
mini-pig T1/2 (min) [11]: +
Monkey T1/2 (min) [12]: +
Compound: C=CC(C)(C)C(=O)N(O)Cc1ccccc1 [Compound 19, N-benzyl-N-hydroxy-2,2-dimethylbut-3-enamide]
pEC50 (necrosis; [16]): 6.00 to 9.00

pEC50 (ferroptosis): 5.00 to 6.00
pIC50 (Human RIP1 kinase): > 7.00
Compound: CCC(C)(C)C(=O)N(O)Cc1ccc2c(c1)CCC2 [Compound 20, N-((2,3-dihydro-1H-inden-5-yl)methyl)-N-hydroxy-2,2-dimethylbutanamide]
pEC50 (necrosis; [16]): 6.00 to 9.00
pEC50 (necrosis; [20]): > 7.00

pEC50 (ferroptosis): 5.00 to 6.00
pIC50 (Human RIP1 kinase): > 7.00
Compound: CCC(C)(C)C(=O)N(O)Cc1ccsc1 [Compound 23, N-hydroxy-2,2-dimethyl-N-(thiophen-3-ylmethyl)butanamide]
pEC50 (necrosis; [16]): 6.00 to 9.00
pEC50 (necrosis; [20]): 6.00 to 9.00

pEC50 (ferroptosis): 5.00 to 6.00
pIC50 (Human RIP1 kinase): 6.00 to 7.00
Compound: CCC(C)(C)C(=O)N(O)Cc1cnc(C)s1 [Compound 24, N-hydroxy-2,2-dimethyl-N-((2-methylthiazol-5-yl)methyl)butanamide]
pEC50 (necrosis; [16]): 6.00 to 9.00
pEC50 (necrosis; [20]): 6.00 to 9.00

pEC50 (ferroptosis): 5.00 to 6.00
half-life [1, 17]: 136 min
half-life [2, 18]: 23.3 min
half-life [3, 19]: 21.1 min
half-life [4]: 2.31 min
mini-pig T1/2 (min) [5]: +
half-life [6]: 4.97 min
half-life ([7]; human, hepatocytes, read-out: Human T1/2): 110 min
half-life ([8]; rat, hepatocytes, read-out: Rat T1/2): 33.4 min
half-life ([9]; mouse, hepatocytes, read-out: Mouse T1/2): 21 min
half-life ([10]; dog, hepatocytes, read-out: Dog T1/2): 8.43 min
half-life ([12]; monkey, hepatocytes, read-out: Monkey T1/2): 19.3 min
AUC (PK in rat; SD rat, PO, dose 60 mg/Kg micropower): 8340 ng·h/mL
bioavailability (PK in rat; [21]): 74.1%
half-life (PK in rat; [21]): 171 min
Compound: [2H]CC([2H])C(C)(C)C(=O)N(O)Cc1cc(F)cc(F)c1 (stereo not drawn) [Compound 26, N-(3,5-difluorobenzyl)-N-hydroxy-2,2-dimethylbutanamide-3,4-d2]
pEC50 (necrosis; [16]): 6.00 to 9.00

pEC50 (ferroptosis): 5.00 to 6.00
pIC50 (Human RIP1 kinase): 6.00 to 7.00
Compound: O=C(N(O)Cc1ccccc1)C1(C(F)(F)F)CCC1 [Compound 35, N-benzyl-N-hydroxy-1-(trifluoromethyl)cyclobutane-1-carboxamide]
pEC50 (necrosis; [16]): 6.00 to 9.00
pEC50 (necrosis; [20]): 6.00 to 9.00

pEC50 (ferroptosis): 5.00 to 6.00
pIC50 (Human RIP1 kinase): 6.00 to 7.00
Compound: CCC1(C(=O)N(O)Cc2ccccc2)CC1 [Compound 38, N-benzyl-1-ethyl-N-hydroxycyclopropane-1-carboxamide]
pEC50 (necrosis; [16]): 5.00 to 6.00
pEC50 (necrosis; [20]): 5.00 to 9.00

pEC50 (ferroptosis): 5.00 to 6.00
pIC50 (Human RIP1 kinase): 6.00 to 7.00
Compound: Cc1ccsc1CN(O)C(=O)C(C)(C)C(F)(F)F [Compound 48, 3,3,3-trifluoro-N-hydroxy-2,2-dimethyl-N-((3-methylthiophen-2-yl)methyl)propanamide]
pEC50 (necrosis; [16]): 5.00 to 6.00
pEC50 (necrosis; [20]): 5.00 to 9.00

pEC50 (ferroptosis): 5.00 to 6.00
L [13]: +
H [14]: +
PK [15]: +
Compound: CC(C)(C(=O)N(O)Cc1ccccc1)C(F)F [Compound 74, N-benzyl-3,3-difluoro-N-hydroxy-2,2-dimethylpropanamide]
pEC50 (necrosis; [16]): 6.00 to 9.00

pEC50 (ferroptosis): 5.00 to 6.00
L [13]: +
H [14]: +
PK [15]: +
Compound: CC(C)(C(=O)N(O)Cc1cc(F)cc(F)c1)C(F)F [Compound 75, N-(3,5-difluorobenzyl)-3,3-difluoro-N-hydroxy-2,2-dimethylpropanamide]
pEC50 (necrosis; [16]): 6.00 to 9.00

pEC50 (ferroptosis): 5.00 to 6.00
L [13]: +
H [14]: +
PK [15]: +
Compound: CC(C)(CCF)C(=O)N(O)Cc1cc(F)cc(F)c1 [Compound 76, N-(3,5-difluorobenzyl)-4-fluoro-N-hydroxy-2,2-dimethylbutanamide]
pEC50 (necrosis; [16]): 5.00 to 6.00

pEC50 (ferroptosis): 5.00 to 6.00
pIC50 (Human RIP1 kinase): > 7.00
Compound: O=C(C1CCN(c2ncc(F)cn2)CC1)N(O)Cc1ccccc1 [Compound 84, N-benzyl-1-(5-fluoropyrimidin-2-yl)-N-hydroxypiperidine-4-carboxamide]
pEC50 (necrosis; [16]): 6.00 to 9.00
pEC50 (necrosis; [20]): > 7.00

pEC50 (ferroptosis): 5.00 to 6.00
pIC50 (Human RIP1 kinase): > 7.00
Compound: O=C(C1CCN(c2ncc(F)cn2)CC1)N(O)Cc1cc(F)cc(F)c1 [Compound 86, N-(3,5-difluorobenzyl)-1-(5-fluoropyrimidin-2-yl)-N-hydroxypiperidine-4-carboxamide]
pEC50 (necrosis; [16]): 6.00 to 9.00
pEC50 (necrosis; [20]): 6.00 to 9.00

EC50 (HT-29): 65 nM
half-life [1, 22]: 67 min
half-life [2, 23]: 22 min
half-life [3, 24]: 9 min
Compound: CCC(C)(C)C(=O)N(O)Cc1cc(F)cc(F)c1F [SIR1-176]

EC50 (HT-29): 197 nM
half-life [1, 22]: 198 min
half-life [2, 23]: 28 min
half-life [3, 24]: 23 min
Compound: CCC(C)(C)C(=O)N(O)Cc1ccc(F)cc1F [SIR1-179]

EC50 (HT-29): 55 nM
half-life [1, 22]: 107 min
half-life [2, 23]: 29 min
half-life [3, 24]: 11 min
Compound: CCC(C)(C)C(=O)N(O)Cc1ccc(F)c(F)c1 [SIR1-180]

EC50 (HT-29): 64 nM
half-life [1, 22]: 178 min
half-life [2, 23]: 37 min
half-life [3, 24]: 24 min
AUC(0-inf) (PK in rat; Rat, PO 10 mg/kg): 24.3 ng·h/mL
Cmax (PK in rat; Rat, PO 10 mg/kg): 32.3 ng/mL
half-life (PK in rat; 10 mg/kg, PO 10 mg/kg): 32.5 min
AUC(0-inf) (PK in mouse; IV 2 mg/kg): 522 ng·h/mL
clearance (PK in mouse; IV 2 mg/kg): 63.7 mL/min/kg
half-life (PK in mouse; IV 2 mg/kg): 35.7 min
Vd (PK in mouse; IV 2 mg/kg, read-out: Vdss): 3.28 L/kg
AUC(0-inf) (PK in mouse; PO 10 mg/kg): 1740 ng·h/mL
Cmax (PK in mouse; PO 10 mg/kg): 2850 ng/mL
bioavailability (PK in mouse; PO 10 mg/kg): 66.6%
half-life (PK in mouse; PO 10 mg/kg): 30.8 min
AUC(0-inf) (PK in dog; IV 5 mg/kg): 3210 ng·h/mL
clearance (PK in dog; IV 5 mg/kg): 25.9 mL/min/kg
half-life (PK in dog; IV 5 mg/kg): 120 min
Vd (PK in dog; IV 5 mg/kg, read-out: Vdss): 1.8 L/kg
AUC(0-inf) (PK in dog; PO 10 mg/kg): 148 ng·h/mL
Cmax (PK in dog; PO 10 mg/kg): 195 ng/mL
bioavailability (PK in dog; PO 10 mg/kg): 2.5%
half-life (PK in dog; PO 10 mg/kg): 276 min
Compound: CCC(C)(C)C(=O)N(O)Cc1ccc(F)cc1 [SIR1-181]

EC50 (HT-29): 272 nM
half-life [1, 22]: 36 min
half-life [2, 23]: 19 min
half-life [3, 24]: 12 min
Compound: CCC(C)(C)C(=O)N(O)Cc1ccc(F)c(F)c1F [SIR1-184]

EC50 (HT-29): 46 nM
half-life [1, 22]: 64 min
half-life [2, 23]: 21 min
half-life [3, 24]: 6 min
Compound: CCC(C)(C)C(=O)N(O)Cc1cc(F)c(F)c(F)c1 [SIR1-186]
